Laboratory results from BindingDB's records for doi:10.1074/jbc.M406801200 (The Scripps Research Institute, 2004).

target: Bifunctional purine biosynthesis protein ATIC (Homo sapiens, UniProt P31939); test: AICAR Tfase Inhibition Assay; details: pH 7.5; 22 °C
Procedure: The human ATIC enzyme was used for the inhibition assay. The assay buffer was flushed with nitrogen to minimize oxidization of cofactor 10-f-THF. The reaction was initiated by adding the substrate AICAR to reaction mixtures containing ATIC, test compounds, and different concentrations of cofactor. […] The THF was generated in the transfer reaction of the formyl group from cofactor to AICAR to produce 5-formyl-AICAR. IC50 values were measured from dose-response curves.

Chain of Bifunctional purine biosynthesis protein ATIC (P31939 whole entry): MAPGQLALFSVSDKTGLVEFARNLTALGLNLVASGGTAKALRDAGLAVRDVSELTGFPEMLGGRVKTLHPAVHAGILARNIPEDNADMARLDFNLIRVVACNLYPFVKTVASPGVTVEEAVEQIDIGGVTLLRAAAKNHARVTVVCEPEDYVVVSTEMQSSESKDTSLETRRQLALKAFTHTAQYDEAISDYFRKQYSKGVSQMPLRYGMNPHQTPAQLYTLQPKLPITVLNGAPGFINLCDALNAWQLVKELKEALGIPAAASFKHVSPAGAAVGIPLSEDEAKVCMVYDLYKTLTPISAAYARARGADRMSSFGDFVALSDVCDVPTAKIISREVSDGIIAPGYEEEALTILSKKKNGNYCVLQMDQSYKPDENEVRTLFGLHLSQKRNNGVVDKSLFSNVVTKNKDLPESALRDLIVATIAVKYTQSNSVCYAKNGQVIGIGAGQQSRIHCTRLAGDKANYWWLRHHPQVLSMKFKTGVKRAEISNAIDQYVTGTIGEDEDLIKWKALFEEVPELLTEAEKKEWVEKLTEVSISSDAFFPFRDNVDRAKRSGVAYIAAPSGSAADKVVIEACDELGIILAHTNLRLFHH

Row | SMILES | IC50 [µM]
1 | Cc1cc(N=Nc2c(C)[nH]n(-c3ccc(S(=O)(=O)O)cc3)c2=O)ccc1S(=O)(=O)Nc1ccccc1 | 11.6
2 | Cc1[nH]n(-c2ccc(S(=O)(=O)O)cc2)c(=O)c1N=Nc1cc(Cl)cc(S(=O)(=O)O)c1C(=O)O [4-chloro-2-[(E)-2-[5-hydroxy-3-methyl-1-(4-sulfophenyl)-1H-pyrazol-4-yl]diazen-1-yl]-6-sulfobenzoic acid] | 41.6
3 | Cc1ccc(OS(=O)(=O)c2ccc(N=Nc3c(C)[nH]n(-c4ccc(Cl)cc4S(=O)(=O)O)c3=O)cc2)cc1 [5-chloro-2-{5-hydroxy-3-methyl-4-[(E)-2-[4-(4-methylphenoxysulfonyl)phenyl]diazen-1-yl]-1H-pyrazol-1-yl}benzene-1-sulfonic acid] | 3.3

Results, then the compound that gave them:

Row | IC50 [µM] | SMILES
4 | 20.1 | Cc1[nH]n(-c2cc(Cl)c(S(=O)(=O)O)cc2Cl)c(=O)c1N=Nc1ccc(S(=O)(=O)O)cc1 [yellow 2G]
5 | 1.4 | O=S(=O)(O)Oc1c(-c2sc3c(ccc4cccc(Cl)c43)c2OS(=O)(=O)O)[nH]c2ccc(Br)cc12 [{4-[5-bromo-3-(sulfooxy)-1H-indol-2-yl]-13-chloro-3-thiatricyclo[7.4.0.0^{2,6}]trideca-1(9),2(6),4,7,10,12-hexaen-5-yl}oxidanesulfonic acid]
